# According to US20210403485A1, “PYRAZOLOPYRIMIDINE DERIVATIVE AS SELECTIVE TRK INHIBITOR” (SHANDONG LUYE PHARMACEUTICAL CO., LTD., priority 2018, published 2021):
# How the values were obtained:
# Ba/F3 ETV6-NTRK3 cells = assay: Efficacy test in animals: subcutaneous xenograft, intragastric administration; assay type: in vivo, nude mice; conditions: for TGI (tumor growth inhibition rate): day of dissection; for Tumor inhibition rate (by tumor weight) / Tumor weight: end of the test
# Protocol: (§1) Cells in the logarithmic growth phase were collected and resuspended in serum-free medium to a cell concentration of 2-4×10^7 cells/mL. An equal volume of matrigel was added to the cell suspension to achieve a final cell concentration of 1-2×10^7 cells/mL. 0.2 mL of tumor cell suspension was subcutaneously inoculated at the scapula of each nude mouse with the inoculation amount of 2-4×10^6 cells/mouse to prepare the animal models.
# [1] = tested on: Ba/F3 ETV6-NTRK3-G623R cells; assay: as above; assay type: in vivo, nude mice
# Protocol: as §1
structure (smiles),measurement,setting,value
"O=C1NC2(CC2)COc2ncc(F)cc2C2COCCN2c2ccn3ncc1c3n2 (single isomer, unassigned) [WX001B]",Relative tumor proliferation rate T/C,"Ba/F3 ETV6-NTRK3 cells; Day 9, 20 mg/kg bid",4.91%
same,Tumor volume,"Ba/F3 ETV6-NTRK3 cells; Day 9, 20 mg/kg bid",134.49 ± 117.51 mm^3
same,Relative tumor proliferation rate T/C,"Ba/F3 ETV6-NTRK3 cells; Day 11, 2.5 mg/kg bid",15.67%
same,Tumor volume,"Ba/F3 ETV6-NTRK3 cells; Day 11, 2.5 mg/kg bid",590.74 ± 266.98 mm^3
same,Relative tumor proliferation rate T/C,"Ba/F3 ETV6-NTRK3 cells; Day 11, 5 mg/kg bid",8.73%
same,Tumor volume,"Ba/F3 ETV6-NTRK3 cells; Day 11, 5 mg/kg bid",328.91 ± 190.07 mm^3
same,Relative tumor proliferation rate T/C,"Ba/F3 ETV6-NTRK3 cells; Day 11, 10 mg/kg bid",4.82%
same,Tumor volume,"Ba/F3 ETV6-NTRK3 cells; Day 11, 10 mg/kg bid",181.69 ± 121.62 mm^3
same,Relative tumor proliferation rate T/C,"Ba/F3 ETV6-NTRK3 cells; Day 11, 20 mg/kg bid",2.89%
same,Tumor volume,"Ba/F3 ETV6-NTRK3 cells; Day 11, 20 mg/kg bid",109.00 ± 116.94 mm^3
same,TGI (tumor growth inhibition rate),Ba/F3 ETV6-NTRK3 cells; 2.5 mg/kg bid,84.33%
same,TGI (tumor growth inhibition rate),Ba/F3 ETV6-NTRK3 cells; 5 mg/kg bid,91.27%
same,TGI (tumor growth inhibition rate),Ba/F3 ETV6-NTRK3 cells; 10 mg/kg bid,95.18%
same,TGI (tumor growth inhibition rate),Ba/F3 ETV6-NTRK3 cells; 20 mg/kg bid,97.11%
same,Tumor inhibition rate (by tumor weight),Ba/F3 ETV6-NTRK3 cells; 2.5 mg/kg bid,85.47%
same,Tumor weight,Ba/F3 ETV6-NTRK3 cells; 2.5 mg/kg bid,0.25 ± 0.15 g
same,Tumor inhibition rate (by tumor weight),Ba/F3 ETV6-NTRK3 cells; 5 mg/kg bid,89.51%
same,Tumor weight,Ba/F3 ETV6-NTRK3 cells; 5 mg/kg bid,0.18 ± 0.08 g
same,Tumor inhibition rate (by tumor weight),Ba/F3 ETV6-NTRK3 cells; 10 mg/kg bid,93.42%
same,Tumor weight,Ba/F3 ETV6-NTRK3 cells; 10 mg/kg bid,0.12 ± 0.10 g
same,Tumor inhibition rate (by tumor weight),Ba/F3 ETV6-NTRK3 cells; 20 mg/kg bid,96.47%
same,Tumor weight,Ba/F3 ETV6-NTRK3 cells; 20 mg/kg bid,0.06 ± 0.03 g
same,Inhibition of growth of subcutaneous xenografts,[1]; 2.5-20 mg/kg,in a dose-dependent manner
same,Relative tumor proliferation rate T/C,"[1]; Day 0, 2.5 mg/kg bid",100.00%
same,Tumor volume,"[1]; Day 0, 2.5 mg/kg bid",200.40 ± 33.16 mm^3
same,Relative tumor proliferation rate T/C,"[1]; Day 0, 5 mg/kg bid",100.00%
same,Tumor volume,"[1]; Day 0, 5 mg/kg bid",200.35 ± 32.62 mm^3
same,Relative tumor proliferation rate T/C,"[1]; Day 0, 10 mg/kg bid",100.00%
same,Tumor volume,"[1]; Day 0, 10 mg/kg bid",199.55 ± 34.92 mm^3
same,Relative tumor proliferation rate T/C,"[1]; Day 0, 20 mg/kg bid",100.00%
same,Tumor volume,"[1]; Day 0, 20 mg/kg bid",199.51 ± 34.71 mm^3
same,Relative tumor proliferation rate T/C,"[1]; Day 3, 2.5 mg/kg bid",64.91%
same,Tumor volume,"[1]; Day 3, 2.5 mg/kg bid",392.17 ± 91.44 mm^3
same,Relative tumor proliferation rate T/C,"[1]; Day 3, 5 mg/kg bid",56.84%
same,Tumor volume,"[1]; Day 3, 5 mg/kg bid",343.40 ± 96.52 mm^3
same,Relative tumor proliferation rate T/C,"[1]; Day 3, 10 mg/kg bid",35.78%
same,Tumor volume,"[1]; Day 3, 10 mg/kg bid",216.15 ± 52.64 mm^3
same,Relative tumor proliferation rate T/C,"[1]; Day 3, 20 mg/kg bid",32.65%
same,Tumor volume,"[1]; Day 3, 20 mg/kg bid",197.28 ± 52.49 mm^3
same,Relative tumor proliferation rate T/C,"[1]; Day 5, 2.5 mg/kg bid",42.80%
same,Tumor volume,"[1]; Day 5, 2.5 mg/kg bid",507.81 ± 127.36 mm^3
same,Relative tumor proliferation rate T/C,"[1]; Day 5, 5 mg/kg bid",32.50%
same,Tumor volume,"[1]; Day 5, 5 mg/kg bid",385.61 ± 63.66 mm^3
same,Relative tumor proliferation rate T/C,"[1]; Day 5, 10 mg/kg bid",19.67%
same,Tumor volume,"[1]; Day 5, 10 mg/kg bid",233.42 ± 49.88 mm^3
same,Relative tumor proliferation rate T/C,"[1]; Day 5, 20 mg/kg bid",13.62%
same,Tumor volume,"[1]; Day 5, 20 mg/kg bid",161.67 ± 45.52 mm^3
